Experimental data: US9012470B2 (Dart NeuroScience (Cayman) Ltd., priority 2010, dated 2015)
Structures can show the parent of a compound that is named as a salt.

Experiments:
GABAA receptors = experiment: Electrophysiology assay, two-electrode voltage clamp in Xenopus oocytes expressing GABAA receptors; type: cell-based; conditions: GABA EC10, screening concentration of 10 μM, subunit combination not stated
Protocol: mRNA was prepared from lyophilized plasmid pellets containing cDNA inserts encoding the specific GABAA receptor subunit. cDNAs encoding the α2, α3, and γ3 subunits were subcloned into pBluescript, SK^−. cDNAs encoding the α1 and α5 subunits were subcloned into prC while cDNA encoding the β2 subunit was subcloned into pcDNA1. The cDNA construct encoding the γ2s subunit is in the pGH19 expression construct. Overnight cultures of transformed DH5a bacterial cells were performed to grow sufficient quantities for maxiprep isolation of the plasmid cDNA. The resulting plasmid cDNA was linearized by digestion with an appropriate restriction enzyme that cleaves distal to the cDNA insert (XbaI for α1,2, β2, and γ3 or NotI for α3,5 and γ2, respectively). Following digestion, plasmid cDNA was treated with proteinase K and extracted with phenol/chloroform/isoamyl alcohol, followed by ethanol precipitation. cDNA quality was assessed by agarose-gel electrophoresis (1.5% agarose gel). Samples were stored at −20° C. until use. In vitro transcription was performed with T7 RNA polymerase. mRNA was then stored at −80° C. until use. Plasmids were linearized with appropriate restriction enzymes before in vitro transcription using the Message Machine kit (Ambion, Austin, Tex.).
GABAA Receptor Expression in Xenopus oocytes.
GABAA receptor expression in Xenopus oocytes: Following 45 min of 0.15% Tricaine anesthesia, an ovarian section containing the follicular oocytes was removed from the frog through a lateral abdominal incision. Oocytes were immediately placed in a calcium-free solution (NaCl 96 mM, MgCl2 1 mM, KCl 2 mM, Hepes 50 mM, pyruvate 2.5 mM, gentamycin 100 μg/mL, penicillin-streptomycin 50 U/mL, pH 7.4). Following 1.5-2 hour incubation in 0.2% collagenase (type II, Sigma Chemical Co., St. Louis, Mo.) at room temperature, individual Dumont stage V and VI oocytes were transferred to an incubator and maintained overnight in Barth's solution (NaCl 84 mM, NaHCO3 2.4 mM, MgSO4 0.82 mM, KCl 1 mM, Ca(NO3)2 0.33 mM, CaCl2 0.41 mM, Tris/HCl 7.5 mM, pyruvate 2.5 mM, gentamycin 50 μg/mL, penicillin-streptomycin, 100 units/mL, pH 7.4) at 18-20° C. and used for experiments 1-5 days post-injection. Oocytes were injected solution using an electronic microinjector (Drummond, Broomall, Pa.) with 50 nL of RNA containing 0.3-0.5 ng of each subunit RNA in a 1:1:1 ratio. The injected oocytes were used for experiments after 1-5 days of incubation in Barth's solution at 18-20° C.
Measurements of ion currents from oocytes expressing GABAA receptors were performed using a Warner two-electrode voltage-clamp amplifier (Warner Instruments, Inc., Foster City, Calif.) (Park-Chung, M., et al. (1999) Brain Res. 830: 72-87 incorporated herein in its entirety). Microelectrodes were fabricated from borosilicate glass capillaries with a programmed pipette puller (Sutter Instrument Co., Calif.). Microelectrode resistance was 1-3 MΩ when filled with 3 M KCl. The oocyte recording chamber was continuously perfused with Ringer solution. Oocytes were clamped at a holding potential of −70 mV during data acquisition. The membrane current was filtered at 10 Hz and sampled at 100 Hz. Compounds were applied by a gravity-driven external perfusion system. The working volume of the recording chamber was 30 μL and the rate of the perfusion was approximately 50 μL/sec. Compound application was 10-20 sec followed by a 90 sec wash. Data acquisition and external perfusion was computer controlled by custom-developed software. All experiments were performed at room temperature (22-24° C.). Dose-response data from each oocyte were fitted to the Hill equation by non-linear regression using the equation: IGABA=Emax/(1+(EC50/c)^n^H)
Emax is the maximum response, EC50 is the concentration producing 50% of the maximal response, nH is the Hill coefficient and c is the concentration of agonist. […]

[1] = system: benzodiazepine site of GABAA; experiment: Binding assay, benzodiazepine site of GABAA (binding assay 1: rat brain, (3H)-flunitrazepam; binding assay 2: bovine hippocampal membranes, [3H]-RY80); conditions: radioligand binding; for % Inhibition at 10 μM: 10 μM test compound; for % Inhibition at 0.1 μM: 0.1 μM test compound
Protocol: The ability of a compound disclosed herein to act as ligand to the benzodiazepine site of GABAA can be determined using pharmacological models which are well known in the art using the following assay.
Binding assay 1: Whole brain (except cerebellum) of male Wistar derived rats weighing 175±25 g were used to prepare GABAA central benzodiazepine receptor in Na—K phosphate buffer pH 7.4. A 5 mg aliquot was incubated with 1 nM (^3H)-flunitrazepam for 60 minutes at 25° C. Experiments were performed in the presence or absence of 30 μM of GABA. Non-specific binding was estimated in the presence of 10 μM of diazepam. Membranes were filtered and washed, the filters were then counted to determine (^3H)-flunitrazepam specifically bound. Test compounds were tested in duplicate according to the required concentrations (Damm, H. W., et al. (1978) Res. Comm. Chem. Pathol. Pharmacol. 22: 597-560 incorporated herein in its entirety; Speth, R. C., et al. (1979) Life Sci. 24: 351-357 incorporated herein in its entirety).
Receptor Source: Bovine hippocampal membranes
Radioligand: [3H]-RY80 (40-80 Ci/mmol)
Final ligand concentration—[0.8 nM]
Non-specific Determinant: L-655,708—[0.5 μM]
Binding assay 2 followed procedures based on Li and Szabo (Li M., Szabo A., Rosenberg H. Evaluation of native GABAA receptors containing an α5 subunit. Eur. J. Pharmacol. 413: 63-72 (2001)). Incubation Conditions: Reactions are carried out in 50 mM Tris-Citrate (pH 7.8) containing 200 mM NaCl at 0-4° C. for 60 minutes. The reaction is terminated by rapid vacuum filtration onto glass fiber filters. Radioactivity trapped onto the filters is determined and compared to control values in order to ascertain any interactions of test compound with the benzodiazepine (central) binding site.

Row | Structure (SMILES) | % Inhibition at 10 μM [1] | % Inhibition at 0.1 μM [1] | EP Modulation (GABAA receptors)
1 | CCNC(=O)n1ncc2c3nn(-c4cccc(Cl)c4)c(=O)c-3c[nH]c21 [Compound 6ad, 2-(3-chlorophenyl)-N-ethyl-3-oxo-2,3-dihydrodipyrazolo[3,4-b:3′,4′-d]pyridine-6(5H)-carboxamide] | A (A indicates % inhibition >80%) | – | E (E indicates negative modulation <20%)
2 | CCNC(=O)n1ncc2c3nn(-c4ccc(C(F)(F)F)cc4)c(=O)c-3c[nH]c21 [Compound 6ae, N-ethyl-3-oxo-2-(4-(trifluoromethyl)phenyl)-2,3-dihydrodipyrazolo[3,4-b:3′,4′-d]pyridine-6(5H)-carboxamide] | A (A indicates % inhibition >80%) | – | E (E indicates negative modulation <20%)
3 | CCNC(=O)n1ncc2c3nn(-c4cccc(C(F)(F)F)c4)c(=O)c-3c[nH]c21 [Compound 6ai, N-ethyl-3-oxo-2-(3-(trifluoromethyl)phenyl)-2,3-dihydrodipyrazolo[3,4-b:3′,4′-d]pyridine-6(5H)-carboxamide] | A (A indicates % inhibition >80%) | C (C indicates % inhibition <20%) | 0%
4 | CCNC(=S)n1ncc2c3nn(-c4ccccc4)c(=O)c-3c[nH]c21 [Compound 6ar, N-ethyl-3-oxo-2-phenyl-2,3-dihydrodipyrazolo[3,4-b:3′,4′-d]pyridine-6(5H)-carbothioamide] | A (A indicates % inhibition >80%) | – | E (E indicates negative modulation <20%)
5 | CCNC(=S)n1ncc2c3nn(-c4ccc(Cl)cc4)c(=O)c-3c[nH]c21 [Compound 6as, 2-(4-chlorophenyl)-N-ethyl-3-oxo-2,3-dihydrodipyrazolo[3,4-b:3′,4′-d]pyridine-6(5H)-carbothioamide] | A (A indicates % inhibition >80%) | – | D (D indicates negative modulation >20%)
6 | CCNC(=O)n1nc2[nH]cc3c(=O)n(-c4ccccc4)nc-3c2c1C [Compound 6av, N-ethyl-8-methyl-3-oxo-2-phenyl-2,3-dihydrodipyrazolo[3,4-b:3′,4′-d]pyridine-7(5H)-carboxamide] | A (A indicates % inhibition >80%) | B (B indicates % inhibition <80% and >20%) | E (E indicates negative modulation <20%)
7 | CCNC(=O)n1ncc2c3nn(-c4ccc(Cl)cn4)c(=O)c-3c[nH]c21 [Compound 6ay, 2-(5-chloropyridin-2-yl)-N-ethyl-3-oxo-2,3-dihydrodipyrazolo[3,4-b:3′,4′-d]pyridine-6(5H)-carboxamide] | A (A indicates % inhibition >80%) | – | D (D indicates negative modulation >20%)
8 | CCNC(=O)n1ncc2c3nn(-c4ccccc4)c(=O)c-3c[nH]c21 [Compound 6b, N-ethyl-3-oxo-2-phenyl-2,3-dihydrodipyrazolo[3,4-b:3′,4′-d]pyridine-6(5H)-carboxamide] | A (A indicates % inhibition >80%) | A (A indicates % inhibition >80%) | D (D indicates negative modulation >20%)
9 | CNC(=O)n1ncc2c3nn(-c4ccccc4)c(=O)c-3c[nH]c21 [Compound 6c, N-methyl-3-oxo-2-phenyl-2,3-dihydrodipyrazolo[3,4-b:3′,4′-d]pyridine-6(5H)-carboxamide] | A (A indicates % inhibition >80%) | B (B indicates % inhibition <80% and >20%) | D (D indicates negative modulation >20%)
10 | O=C(Nc1ccccc1)n1ncc2c3nn(-c4ccccc4)c(=O)c-3c[nH]c21 [Compound 6h, 3-oxo-N,2-diphenyl-2,3-dihydrodipyrazolo[3,4-b:3′,4′-d]pyridine-6(5H)-carboxamide] | B (B indicates % inhibition <80% and >20%) | C (C indicates % inhibition <20%) | D (D indicates negative modulation >20%)

More lines, main results first:

Row | % Inhibition at 10 μM [1] | % Inhibition at 0.1 μM [1] | Structure (SMILES) | EP Modulation (GABAA receptors)
11 | A (A indicates % inhibition >80%) | – | CCCNC(=O)n1ncc2c3nn(-c4ccccc4)c(=O)c-3c[nH]c21 [Compound 6d, 3-oxo-2-phenyl-N-propyl-2,3-dihydrodipyrazolo[3,4-b:3′,4′-d]pyridine-6(5H)-carboxamide] | E (E indicates negative modulation <20%)
12 | A (A indicates % inhibition >80%) | – | CCCCNC(=O)n1ncc2c3nn(-c4ccccc4)c(=O)c-3c[nH]c21 [Compound 6f, N-butyl-3-oxo-2-phenyl-2,3-dihydrodipyrazolo[3,4-b:3′,4′-d]pyridine-6(5H)-carboxamide.TFA] | D (D indicates negative modulation >20%)
13 | A (A indicates % inhibition >80%) | C (C indicates % inhibition <20%) | O=C(NC1CC1)n1ncc2c3nn(-c4ccccc4)c(=O)c-3c[nH]c21 [Compound 6j, N-cyclopropyl-3-oxo-2-phenyl-2,3-dihydrodipyrazolo[3,4-b:3′,4′-d]pyridine-6(5H)-carboxamide] | E (E indicates negative modulation <20%)
14 | A (A indicates % inhibition >80%) | A (A indicates % inhibition >80%) | CCNC(=O)n1nc(C)c2c3nn(-c4ccccc4)c(=O)c-3c[nH]c21 [Compound 6l, N-ethyl-8-methyl-3-oxo-2-phenyl-2,3-dihydrodipyrazolo[3,4-b:3′,4′-d]pyridine-6(5H)-carboxamide] | D (D indicates negative modulation >20%)
15 | A (A indicates % inhibition >80%) | C (C indicates % inhibition <20%) | CCNC(=O)n1ncc2c3nn(-c4ccccn4)c(=O)c-3c[nH]c21 [Compound 6m, N-ethyl-3-oxo-2-(pyridin-2-yl)-2,3-dihydrodipyrazolo[3,4-b:3′,4′-d]pyridine-6(5H)-carboxamide] | D (D indicates negative modulation >20%)
16 | C (C indicates % inhibition <20%) | C (C indicates % inhibition <20%) | CC(C)NC(=O)n1ncc2c3nn(-c4ccccn4)c(=O)c-3c[nH]c21 [Compound 6n, N-isopropyl-3-oxo-2-(pyridin-2-yl)-2,3-dihydrodipyrazolo[3,4-b:3′,4′-d]pyridine-6(5H)-carboxamide] | E (E indicates negative modulation <20%)
